Experimental data taken from PubChem BioAssay AID248 (DTP/NCI, 2004).
Toxic doses and inconclusive results are not listed. No stated cut-off is given here; in the data, active means T/C of 150% or more; inactive means T/C below 125%.

Tested on: L1210 leukemia ip in BDF1 mice, survival T/C
Experiment: NCI In Vivo Anticancer Drug Screen. Data for tumor model L1210 Leukemia (intraperitoneal) in B6D2F1 (BDF1) mice
Conditions: endpoint: mean survival time, higher = longer survival
How it was run: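 Survival endpoint. Drug-treated group vs vehicle group, expressed as T divided by C. Tumor passaged by transplantation.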

[1] = dose: 100.0 mg/kg/injection, schedule: Q01DX001 (ip), vehicle: Klucel (hydroxypropylcellulose) (HPC)
[2] = dose: 100.0 mg/kg/injection, schedule: Q01DX009 (ip), vehicle: Klucel (hydroxypropylcellulose) (HPC)
[3] = dose: 200.0 mg/kg/injection, schedule: Q01DX009 (ip), vehicle: Klucel (hydroxypropylcellulose) (HPC)
[4] = dose: 100.0 mg/kg/injection, schedule: Q01DX009 (ip), vehicle: saline with Tween-80
[5] = dose: 100.0 mg/kg/injection, schedule: Q04DX003 (ip), vehicle: saline
[6] = dose: 200.0 mg/kg/injection, schedule: Q01DX009 (ip), vehicle: saline with Tween-80
[7] = dose: 200.0 mg/kg/injection, schedule: Q04DX003 (ip), vehicle: saline
[8] = dose: 400.0 mg/kg/injection, schedule: Q01DX009 (ip), vehicle: saline with Tween-80
[9] = dose: 400.0 mg/kg/injection, schedule: Q04DX003 (ip), vehicle: saline
[10] = dose: 100.0 mg/kg/injection, schedule: Q01DX001 (ip), vehicle: saline
[11] = dose: 200.0 mg/kg/injection, schedule: Q01DX001 (ip), vehicle: saline
[12] = dose: 400.0 mg/kg/injection, schedule: Q01DX001 (ip), vehicle: saline
[13] = dose: 100.0 mg/kg/injection, schedule: Q04DX003 (ip), vehicle: Klucel (hydroxypropylcellulose) (HPC)
[14] = dose: 200.0 mg/kg/injection, schedule: Q04DX003 (ip), vehicle: Klucel (hydroxypropylcellulose) (HPC)
[15] = dose: 400.0 mg/kg/injection, schedule: Q04DX003 (ip), vehicle: Klucel (hydroxypropylcellulose) (HPC)

Measured: T/C

CC1(c2ccc(C(O)c3ccccc3)s2)OCCO1 (stereo unspecified)
inactive: dose: 33.0 mg/kg/injection, schedule: Q01DX009 (ip), vehicle: carboxymethylcellulose (CMC) 103 % of control | dose: 37.5 mg/kg/injection, schedule: Q04DX003 (ip), vehicle: Klucel (hydroxypropylcellulose) (HPC) 109 % of control | dose: 50.0 mg/kg/injection, schedule: Q01DX009 (ip), vehicle: carboxymethylcellulose (CMC) 98 % of control | dose: 75.0 mg/kg/injection, schedule: Q01DX001 (ip), vehicle: carboxymethylcellulose (CMC) 109 % of control | dose: 75.0 mg/kg/injection, schedule: Q01DX009 (ip), vehicle: carboxymethylcellulose (CMC) 103 % of control | dose: 75.0 mg/kg/injection, schedule: Q04DX003 (ip), vehicle: Klucel (hydroxypropylcellulose) (HPC) 109 % of control | [1] 103 % of control | dose: 150.0 mg/kg/injection, schedule: Q01DX001 (ip), vehicle: Klucel (hydroxypropylcellulose) (HPC) 97 % of control | dose: 150.0 mg/kg/injection, schedule: Q01DX009 (ip), vehicle: carboxymethylcellulose (CMC) 113 % of control | dose: 225.0 mg/kg/injection, schedule: Q01DX001 (ip), vehicle: Klucel (hydroxypropylcellulose) (HPC) 109 % of control

[O-][n+]1ccc(Cl)cc1
inactive: dose: 100.0 mg/kg/injection, schedule: Q01DX009 (ip), vehicle: saline 100 % of control | dose: 200.0 mg/kg/injection, schedule: Q01DX009 (ip), vehicle: saline 96 % of control | dose: 400.0 mg/kg/injection, schedule: Q01DX009 (ip), vehicle: saline 94 % of control

CC1C(=O)OC(C)(C)OC1=O
inactive: dose: 25.0 mg/kg/injection, schedule: Q01DX009 (ip), vehicle: Klucel (hydroxypropylcellulose) (HPC) 99 % of control | dose: 50.0 mg/kg/injection, schedule: Q01DX009 (ip), vehicle: Klucel (hydroxypropylcellulose) (HPC) 100 % of control | [2] 98 % of control | [3] 94 % of control | dose: 400.0 mg/kg/injection, schedule: Q01DX009 (ip), vehicle: Klucel (hydroxypropylcellulose) (HPC) 103 % of control

CCCCCCC(=O)CCCC
inactive: [4] 102 % of control | [5] 98 % of control | [6] 111 % of control | [7] 88 % of control | [8] 98 % of control | [9] 94 % of control

NC(=S)N/N=C/C(=O)O
inactive: [10] 91 % of control | [11] 89 % of control | [12] 89 % of control

COc1cc(C)ccc1C1=CCCC1
inactive: dose: 37.5 mg/kg/injection, schedule: Q01DX009 (ip), vehicle: saline 116 % of control | dose: 75.0 mg/kg/injection, schedule: Q01DX001 (ip), vehicle: acetone 102 % of control | dose: 75.0 mg/kg/injection, schedule: Q01DX009 (ip), vehicle: saline 111 % of control | dose: 150.0 mg/kg/injection, schedule: Q01DX001 (ip), vehicle: acetone 91 % of control | dose: 150.0 mg/kg/injection, schedule: Q01DX009 (ip), vehicle: saline 106 % of control | dose: 225.0 mg/kg/injection, schedule: Q01DX009 (ip), vehicle: acetone 86 % of control | dose: 300.0 mg/kg/injection, schedule: Q01DX001 (ip), vehicle: acetone 89 % of control

CC1(/C=N\NC(N)=O)CC2C=CC1C2 (stereo unspecified)
inactive: [13] 104 % of control | [14] 98 % of control

CC(=O)Oc1cccc(/C=C2/N=C(C)OC2=O)c1
inactive: dose: 25.0 mg/kg/injection, schedule: Q04DX003 (ip), vehicle: Klucel (hydroxypropylcellulose) (HPC) 108 % of control | dose: 50.0 mg/kg/injection, schedule: Q04DX003 (ip), vehicle: Klucel (hydroxypropylcellulose) (HPC) 105 % of control | [10] 92 % of control | [13] 97 % of control | [11] 92 % of control | [12] 90 % of control

N#CCC1CC=CCC1 (stereo unspecified)
inactive: dose: 100.0 mg/kg/injection, schedule: Q01DX001 (ip), vehicle: carboxymethylcellulose (CMC) 98 % of control | dose: 200.0 mg/kg/injection, schedule: Q01DX001 (ip), vehicle: carboxymethylcellulose (CMC) 98 % of control | dose: 400.0 mg/kg/injection, schedule: Q01DX001 (ip), vehicle: carboxymethylcellulose (CMC) 104 % of control

CC(=O)OC1CCCc2c(O)c3c(c(O)c21)C(=O)c1ccccc1C3=O (stereo unspecified)
inactive: [10] 93 % of control | [11] 93 % of control | [12] 91 % of control

CCN(CC)CCCC(C)Nc1ccnc(C)c1 (stereo unspecified)
inactive: dose: 10.0 mg/kg/injection, schedule: Q04DX003 (ip), vehicle: other 100 % of control | dose: 20.0 mg/kg/injection, schedule: Q04DX003 (ip), vehicle: other 95 % of control | dose: 40.0 mg/kg/injection, schedule: Q04DX003 (ip), vehicle: other 94 % of control

OCC1SC(n2cnc3c(=S)nc[nH]c32)C(O)C1O (stereo unspecified)
inactive: dose: 200.0 mg/kg/injection, schedule: Q01DX005 (ip), vehicle: saline 103 % of control

O=C1CC(c2ccccc2)C(c2ccccc2)C(=O)N1 (stereo unspecified)
inactive: dose: 75.0 mg/kg/injection, schedule: Q01DX001 (ip), vehicle: saline 90 % of control | dose: 150.0 mg/kg/injection, schedule: Q01DX001 (ip), vehicle: saline 90 % of control

CN(C)N=Nc1ccc(C#N)cc1
inactive: dose: 50.0 mg/kg/injection, schedule: Q01DX001 (ip), vehicle: saline with Tween-80 105 % of control | dose: 50.0 mg/kg/injection, schedule: Q01DX009 (ip), vehicle: saline with Tween-80 96 % of control | dose: 50.0 mg/kg/injection, schedule: Q04DX003 (ip), vehicle: saline with Tween-80 101 % of control | dose: 100.0 mg/kg/injection, schedule: Q01DX001 (ip), vehicle: saline with Tween-80 106 % of control | [4] 91 % of control | dose: 100.0 mg/kg/injection, schedule: Q04DX003 (ip), vehicle: saline with Tween-80 105 % of control | dose: 200.0 mg/kg/injection, schedule: Q01DX001 (ip), vehicle: saline with Tween-80 118 % of control | [6] 100 % of control | dose: 200.0 mg/kg/injection, schedule: Q04DX003 (ip), vehicle: saline with Tween-80 97 % of control | dose: 400.0 mg/kg/injection, schedule: Q01DX001 (ip), vehicle: saline with Tween-80 122 % of control | [8] 102 % of control | dose: 400.0 mg/kg/injection, schedule: Q04DX003 (ip), vehicle: saline with Tween-80 108 % of control

Cc1ccc(Oc2cccc3c2CC[N+](C)(C)C3)cc1
inactive: dose: 6.25 mg/kg/injection, schedule: Q04DX002 (ip), vehicle: Klucel (hydroxypropylcellulose) (HPC) 96 % of control | dose: 12.5 mg/kg/injection, schedule: Q01DX001 (ip), vehicle: Klucel (hydroxypropylcellulose) (HPC) 97 % of control | dose: 12.5 mg/kg/injection, schedule: Q04DX002 (ip), vehicle: Klucel (hydroxypropylcellulose) (HPC) 96 % of control | dose: 25.0 mg/kg/injection, schedule: Q04DX002 (ip), vehicle: Klucel (hydroxypropylcellulose) (HPC) 100 % of control | dose: 50.0 mg/kg/injection, schedule: Q01DX001 (ip), vehicle: Klucel (hydroxypropylcellulose) (HPC) 94 % of control

COCCCn1nnc2ccccc2c1=O
inactive: [5] 98 % of control | [7] 93 % of control | [9] 100 % of control

Cc1ccc(C2OCC(CCl)O2)cc1 (stereo unspecified)
inactive: dose: 222.0 mg/kg/injection, schedule: Q01DX Z (ip), vehicle: methylcellulose (MC) 108 % of control | dose: 333.0 mg/kg/injection, schedule: Q01DX Z (ip), vehicle: methylcellulose (MC) 96 % of control | dose: 500.0 mg/kg/injection, schedule: Q01DX Z (ip), vehicle: methylcellulose (MC) 102 % of control

O=C1NC(=O)C(c2ccccc2Cl)N1 (stereo unspecified)
inactive: [1] 109 % of control | [13] 102 % of control | dose: 200.0 mg/kg/injection, schedule: Q01DX001 (ip), vehicle: Klucel (hydroxypropylcellulose) (HPC) 118 % of control | [14] 100 % of control | dose: 400.0 mg/kg/injection, schedule: Q01DX001 (ip), vehicle: Klucel (hydroxypropylcellulose) (HPC) 103 % of control | [15] 98 % of control

O=C(O)COc1ccc(F)cc1Cl
inactive: [2] 93 % of control | [13] 96 % of control | [3] 96 % of control | [14] 98 % of control | [15] 94 % of control

COc1cc2ccncc2cc1Oc1ccc(C)cc1
inactive: dose: 50.0 mg/kg/injection, schedule: Q01DX001 (ip), vehicle: other 97 % of control | dose: 100.0 mg/kg/injection, schedule: Q01DX001 (ip), vehicle: other 104 % of control | dose: 200.0 mg/kg/injection, schedule: Q01DX001 (ip), vehicle: other 97 % of control
